In patent US11279691B2, “Substituted pyridine and pyrazine compounds as PDE4 inhibitors” (Dart Neuroscience LLC, priority 2013, dated 2022):

target: T1, PDE4D3 (Homo sapiens, UniProt Q08499); type: biochemical; conditions: GST-tagged PDE4D3, 200 nM FAM-cAMP, 11-point dose-response; read-out: PD4d3 pEC50 (converted)
T1 construct: GST
T1 sequence (Q08499 1-673 isoform Q08499-2): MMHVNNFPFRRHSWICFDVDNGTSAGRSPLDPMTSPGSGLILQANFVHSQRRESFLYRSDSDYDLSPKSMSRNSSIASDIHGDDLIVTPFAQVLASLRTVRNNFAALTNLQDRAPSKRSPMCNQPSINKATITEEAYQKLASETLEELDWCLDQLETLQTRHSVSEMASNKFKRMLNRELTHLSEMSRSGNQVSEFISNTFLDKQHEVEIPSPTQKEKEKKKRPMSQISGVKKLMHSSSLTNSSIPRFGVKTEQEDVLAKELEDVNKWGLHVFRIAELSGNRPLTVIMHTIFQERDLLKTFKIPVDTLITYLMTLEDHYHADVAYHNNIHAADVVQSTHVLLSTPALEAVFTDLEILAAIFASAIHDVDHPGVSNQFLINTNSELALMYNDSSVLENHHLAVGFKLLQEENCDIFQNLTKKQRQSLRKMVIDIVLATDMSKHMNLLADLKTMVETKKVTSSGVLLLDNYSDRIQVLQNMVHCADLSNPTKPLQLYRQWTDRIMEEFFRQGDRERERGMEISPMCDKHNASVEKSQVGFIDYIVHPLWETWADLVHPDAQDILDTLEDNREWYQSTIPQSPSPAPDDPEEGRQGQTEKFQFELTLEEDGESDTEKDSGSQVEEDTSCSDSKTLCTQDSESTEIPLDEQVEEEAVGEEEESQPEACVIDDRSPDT

SMILES	EC50
COc1ncc(Cc2cnc(NCCO)nc2)cc1-c1cccc(Cl)c1 [Example 391, 2-[(5-{[5-(3-Chlorophenyl)-6-methoxypyridin-3-yl]methyl}pyrimidin-2-yl)amino]ethan-1-ol]	< 100 nM
CCOc1ncc(Cn2nnc(C)n2)cc1-c1ccc(F)cc1 [Example 392, 2-Ethoxy-3-(4-fluorophenyl)-5-[(5-methyl-2H-1,2,3,4-tetrazol-2-yl)methyl]pyridine]	< 100 nM
CCOc1ncc(Cn2nnc(C)n2)cc1-c1ccc(F)c(F)c1 [Example 393, 3-(3,4-Difluorophenyl)-2-ethoxy-5-[(5-methyl-2H-1,2,3,4-tetrazol-2-yl)methyl]pyridine]	< 100 nM
CCOc1ncc(Cn2nnc(C)n2)cc1-c1ccnc(OC(F)F)c1 [Example 394, 3-[2-(Difluoromethoxy)pyridin-4-yl]-2-ethoxy-5-[(5-methyl-2H-1,2,3,4-tetrazol-2-yl)methyl]pyridine]	< 100 nM
CCOc1ncc(Cn2nnnc2C)cc1-c1ccc(F)c(F)c1 [Example 395, 3-(3,4-Difluorophenyl)-2-ethoxy-5-[(5-methyl-1H-1,2,3,4-tetrazol-1-yl)methyl]pyridine]	< 100 nM
CCOc1ncc(Cn2nnnc2C)cc1-c1ccnc(OC(F)F)c1 [Example 396, 3-[2-(Difluoromethoxy)pyridin-4-yl]-2-ethoxy-5-[(5-methyl-1H-1,2,3,4-tetrazol-1-yl)methyl]pyridine]	< 100 nM
CCOc1ncc(Cn2nnnc2C)cc1-c1ccc(Cl)c(F)c1 [Example 397, 3-(4-Chloro-3-fluorophenyl)-2-ethoxy-5-[(5-methyl-1H-1,2,3,4-tetrazol-1-yl)methyl]pyridine]	100 to 1000 nM
CCOc1ncc(Cn2nnnc2C)cc1-c1ccc(F)c(Cl)c1 [Example 398, 3-(3-Chloro-4-fluorophenyl)-2-ethoxy-5-[(5-methyl-1H-1,2,3,4-tetrazol-1-yl)methyl]pyridine]	< 100 nM
CCOc1ncc(Cn2nnnc2C)cc1-c1cccc(OC(F)F)c1 [Example 399, 3-[3-(Difluoromethoxy)phenyl]-2-ethoxy-5-[(5-methyl-1H-1,2,3,4-tetrazol-1-yl)methyl]pyridine]	< 100 nM
CCOc1cc(-c2cc(Cn3nnnc3C)cnc2OCC)ccn1 [Example 400, 2-Ethoxy-3-(2-ethoxypyridin-4-yl)-5-[(5-methyl-1H-1,2,3,4-tetrazol-1-yl)methyl]pyridine]	100 to 1000 nM
CCOc1cccc(-c2cc(Cn3nnnc3C)cnc2OCC)c1 [Example 401, 2-Ethoxy-3-(3-ethoxyphenyl)-5-[(5-methyl-1H-1,2,3,4-tetrazol-1-yl)methyl]pyridine]	100 to 1000 nM
CCOc1ncc(Cn2nnnc2C)cc1-c1cc(F)cc(OC)c1 [Example 402, 2-Ethoxy-3-(3-fluoro-5-methoxyphenyl)-5-[(5-methyl-1H-1,2,3,4-tetrazol-1-yl)methyl]pyridine]	100 to 1000 nM
CCOc1ncc(Cn2cc(C(F)F)nc2C)nc1-c1cccc(Cl)c1 [Example 403, 3-(3-Chlorophenyl)-5-{[4-(difluoromethyl)-2-methyl-1H-imidazol-1-yl]methyl}-2-ethoxypyrazine]	100 to 1000 nM
CCOc1cc(-c2cc(Cc3cnc(CO)c(F)c3)cnc2OCC(F)F)ccn1 [Example 404, (5-{[6-(2,2-Difluoroethoxy)-5-(2-ethoxypyridin-4-yl)pyridin-3-yl]methyl}-3-fluoropyridin-2-yl)methanol]	< 100 nM
CCOc1ncc(Cc2cnc(CO)c(F)c2)cc1-c1ccnc(OC(F)F)c1 [Example 405, [5-({5-[2-(Difluoromethoxy)pyridin-4-yl]-6-ethoxypyridin-3-yl}methyl)-3-fluoropyridin-2-yl]methanol]	< 100 nM
Cc1nc(CO)cn1Cc1cnc(OCC(F)F)c(-c2cccc(Cl)c2)c1 [Example 406, (1-{[5-(3-Chlorophenyl)-6-(2,2-difluoroethoxy)pyridin-3-yl]methyl}-2-methyl-1H-imidazol-4-yl)methanol]	< 100 nM
COc1cc(-c2cc(Cn3cnc(N)n3)cnc2OC)ccc1F [Example 407, 1-{[5-(4-Fluoro-3-methoxyphenyl)-6-methoxypyridin-3-yl]methyl}-1H-1,2,4-triazol-3-amine]	1000 to 10000 nM
CCOC(=O)Cc1ccc(Cc2cnc(OC)c(-c3ccc(F)c(F)c3)c2)cc1 [Intermediate 49, Ethyl 2-(4-{[5-(3,4-difluorophenyl)-6-methoxypyridin-3-yl]methyl}phenyl)acetate]	< 100 nM
CCOC(=O)Cc1ccc(Cc2cnc(OC)c(-c3cccc(Cl)c3)c2)cc1 [Intermediate 50, Ethyl 2-(4-{[5-(3-chlorophenyl)-6-methoxypyridin-3-yl]methyl}phenyl)acetate]	100 to 1000 nM
